These results are taken from patent US12662475B2, “Difluorocyclohexyl derivatives as IL-17 modulators” (UCB BIOPHARMA SRL, priority 2020, dated 2026).

What is called IC50 is the concentration needed to halve the response being measured. The low end stands for greater potency in that assay, the high end for weaker potency in that assay.

Test [1] has as its system IL-17 induced IL-6 release from human dermal fibroblasts. In words: Inhibition of IL-17A induced IL-6 release from dermal fibroblast cell line (HDF cell line assay). Format: cell-based. An outline of the steps: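 Human dermal fibroblasts stimulated with IL-17A; compounds pre-incubated with cytokine for 1 h or 5 h at 37° C., then added to cells for 18-20 h at 37° C./5% CO2 ([…]). Released IL-6 quantified by HTRF with Eu-Cryptate and d2/XL665-labelled antibodies.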

In test [2] the target is T1, interaction between IL-17A and soluble IL-17 Receptor A (IL-17RA) (Homo sapiens, UniProt Q16552).
T1 construct: made in house; host or cells: IL-17A-Fc: CHO SXE cells; IL-17RA: Expi HEK293 cells
T1 sequence (Q16552 24-155): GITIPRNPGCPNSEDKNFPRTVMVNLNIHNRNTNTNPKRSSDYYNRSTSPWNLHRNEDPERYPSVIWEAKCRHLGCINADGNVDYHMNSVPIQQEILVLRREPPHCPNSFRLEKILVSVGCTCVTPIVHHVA
In words: IL-17 FRET assay. Particulars: IL-17A binding to IL-17RA. How it is done: The purpose of this assay is to test the ability of compounds to disrupt the interaction between IL-17A and soluble IL-17 Receptor A (IL-17RA). The ability of a compound to inhibit IL-17A binding to IL-17RA is measured in this assay.
An IL-17AA-TEV-Human Fc construct was expressed in a CHO SXE cell system and purified by protein A chromatography and size exclusion. The protein was labelled with an amine reactive AlexaFluor 647 dye (Thermo Fisher #A20006), as per manufacturer's instruction.
Soluble IL-17RA (33-317)-HKH-TEV-Fc was expressed in an Expi HEK293 cell system and purified by protein A chromatography and size exclusion. The Fc tag was cleaved by TEV, producing IL-17RA (33-317)-HKH, and the protein was labelled with amine reactive terbium (Thermo Fisher #PV3581).
In assay buffer [Dulbecco's PBS (Sigma #14190-094), 0.05% P20 (Thermo Scientific #28320), 1 mg/mL BSA (Sigma #A2153-500G)] the following solutions were prepared:
• IL-17A-Fc-AF647 at 5 nM • IL-17RA-HKH-Tb at 5 nM
Compounds were serially diluted in DMSO before receiving an aqueous dilution into a 384 well dilution plate (Greiner #781281), to give a 25% DMSO solution.
IL-17A (10 μL) was added to a black low volume assay plate (Costar #4511) and diluted compound (5 μL) was transferred from the aqueous dilution plate. The cytokine and compound were allowed to incubate for 1 h, then IL-17RA (10 μL) was added. The plates were wrapped in foil and incubated at room temperature for 18-20 h with gentle shaking (<400 rpm) before being read on a Perkin Elmer Envision plate reader (Excitation: 330 nm; Emission 615/645 nm).
The final assay concentrations were IL-17A-AF647 2 nM and IL-17RA-Tb 2 nM, 5% DMSO.

With `Cc1nonc1C(=O)N[C@H](c1nc2c(F)c([C@H](CC(F)F)C(=O)N3CC(F)(F)C3)ccc2[nH]1)C1CCC(F)(F)CC1` (single isomer, unassigned) [Example 4], the figures for the IC50 in test [1] (Incubation Time 5 h) and in test [2] were 15.8 nM and 39.8 nM, respectively.

As for `COC(=O)N1CC[C@](C(=O)N2CC(F)(F)C(F)(F)C2)(c2ccc3[nH]c([C@@H](NC(=O)c4nonc4C)C4CCC(F)(F)CC4)nc3c2F)C1` (single isomer, unassigned) [Example 1], the half-maximal inhibitory concentration (IC50) was 6.31 nM in test [1] (Incubation Time 5 h) and 39.8 nM in test [2].

Regarding `Cc1nonc1C(=O)N[C@H](c1nc2c(F)c(C3(C(=O)N4CC(F)(F)C4)CCC(F)(F)CC3)ccc2[nH]1)C1CCC(F)(F)CC1` [Example 23, N—[(S)-{5-[1-(3,3-Difluoroazetidine-1-carbonyl)-4,4-difluorocyclohexyl]-4-fluoro-1H-benzimidazol-2-yl}(4,4-difluorocyclohexyl)methyl]-4-methyl-1,2,5-oxadiazole-3-carboxamide], the 50% inhibitory concentration (IC50) is 10 nM in test [1] (Incubation Time 5 h) and 20 nM in test [2].

`Cc1nonc1C(=O)N[C@H](c1nc2c(F)c(C(CC(F)F)C(=O)N3CC(F)(F)C3)ccc2[nH]1)C1CCC(F)(F)CC1` (mixture of isomers) [Example 3, N—[(S)-{5-[1-(3,3-Difluoroazetidine-1-carbonyl)-3,3-difluoropropyl]-4-fluoro-1H-benzimidazol-2-yl}(4,4-difluorocyclohexyl)methyl]-4-methyl-1,2,5-oxadiazole-3-carboxamide]: the IC50 in test [1] (Incubation Time 5 h) and in test [2] was 25.1 nM in each case.

Regarding `C[C@H](C(=O)N1CC(F)(F)C1)c1ccc2[nH]c([C@@H](NC(=O)c3ccnn3C)C3CCC(F)(F)CC3)nc2c1F` (single isomer, unassigned) [Example 21], the half-maximal inhibitory concentration (IC50) in test [1] (Incubation Time 5 h) is 15.8 nM; in test [2], 25.1 nM.

On to `COC(=O)N1CCC(C(=O)N2CC(F)(F)C2)(c2ccc3[nH]c([C@@H](NC(=O)c4nonc4C)C4CCC(F)(F)CC4)nc3c2F)CC1` [Example 17, Methyl 4-(3,3-difluoroazetidine-1-carbonyl)-4-(2-{(S)-(4,4-difluorocyclohexyl)[(4-methyl-1,2,5-oxadiazole-3-carbonyl)amino]methyl}-4-fluoro-1H-benzimidazol-5-yl)-piperidine-1-carboxylate], for which the IC50 is 12.6 nM in test [1] (Incubation Time 5 h) and 50.1 nM in test [2].

As for `C[C@@H](C(=O)N1CC(F)(F)C1)c1ccc2[nH]c([C@@H](NC(=O)c3ccnn3C)C3CCC(F)(F)CC3)nc2c1F` (single isomer, unassigned) [Example 22], the half-inhibitory concentration (IC50) in test [1] (Incubation Time 5 h) and in test [2] was 316 nM each time.

Turning to `Cc1nonc1C(=O)N[C@H](c1nc2c(F)c([C@@H](CC(F)F)C(=O)N3CC(F)(F)C3)ccc2[nH]1)C1CCC(F)(F)CC1` (single isomer, unassigned) [Example 5], the values for the half-maximal inhibitory concentration (IC50) in test [1] (Incubation Time 1 h) and in test [2] were 1260 nM and 1580 nM, respectively.

Regarding `Cn1nccc1C(=O)N[C@H](c1nc2c(F)c(C(CC(F)F)C(=O)N3CC(F)(F)C3)ccc2[nH]1)C1CCC(F)(F)CC1` (stereo partly drawn) [Example 6, N—[(S)-{5-[1-(3,3-Difluoroazetidine-1-carbonyl)-3,3-difluoropropyl]-4-fluoro-1H-benzimidazol-2-yl}(4,4-difluorocyclohexyl)methyl]-2-methylpyrazole-3-carboxamide], the IC50 was 25.1 nM in test [1] (Incubation Time 5 h) and 79.4 nM in test [2].

For the molecule `COC(=O)N1CC[C@@](C(=O)N2CC(F)(F)C(F)(F)C2)(c2ccc3[nH]c([C@@H](NC(=O)c4nonc4C)C4CCC(F)(F)CC4)nc3c2F)C1` (single isomer, unassigned) [Example 2], the half-maximal inhibitory concentration (IC50) is 10 nM in test [1] (Incubation Time 5 h) and 39.8 nM in test [2].

Take `Cc1nonc1C(=O)N[C@H](c1nc2c(F)c(C3(C(=O)N4CC(F)(F)C4)CCNCC3)ccc2[nH]1)C1CCC(F)(F)CC1` [Example 16, N—[(S)-{5-[4-(3,3-Difluoroazetidine-1-carbonyl)piperidin-4-yl]-4-fluoro-1H-benzimidazol-2-yl}(4,4-difluorocyclohexyl)methyl]-4-methyl-1,2,5-oxadiazole-3-carboxamide]: the IC50 was 79.4 nM in test [1] (Incubation Time 5 h) and 126 nM in test [2].

With `CC(C(=O)N1CC(F)(F)C1)c1ccc2[nH]c([C@@H](NC(=O)c3ccnn3C)C3CCC(F)(F)CC3)nc2c1F` (mixture of isomers) [Example 20, N—[(S)-{5-[2-(3,3-Difluoroazetidin-1-yl)-1-methyl-2-oxoethyl]-4-fluoro-1H-benzimidazol-2-yl}(4,4-difluorocyclohexyl)methyl]-2-methylpyrazole-3-carboxamide], the concentration for half-maximal inhibition (IC50) in test [1] (Incubation Time 5 h) is 20 nM; in test [2], 100 nM.
